Assay results published in publication PMC8216263 (Pharmaceutical Biology, 2021).

Columns and labels:
[1] = biological target: T1, OAT3 (Homo sapiens, UniProt Q8TCC7); assay: Inhibition of OAT3-mediated 3H-ES uptake in S2-OAT3 cells; format: cell-based; details: GA 50–5000 μg/L, PCA 10–1000 μg/L
T1 construct: host or cells: S2 (second portion of proximal tubule) cells
T1 sequence (Q8TCC7 1-542): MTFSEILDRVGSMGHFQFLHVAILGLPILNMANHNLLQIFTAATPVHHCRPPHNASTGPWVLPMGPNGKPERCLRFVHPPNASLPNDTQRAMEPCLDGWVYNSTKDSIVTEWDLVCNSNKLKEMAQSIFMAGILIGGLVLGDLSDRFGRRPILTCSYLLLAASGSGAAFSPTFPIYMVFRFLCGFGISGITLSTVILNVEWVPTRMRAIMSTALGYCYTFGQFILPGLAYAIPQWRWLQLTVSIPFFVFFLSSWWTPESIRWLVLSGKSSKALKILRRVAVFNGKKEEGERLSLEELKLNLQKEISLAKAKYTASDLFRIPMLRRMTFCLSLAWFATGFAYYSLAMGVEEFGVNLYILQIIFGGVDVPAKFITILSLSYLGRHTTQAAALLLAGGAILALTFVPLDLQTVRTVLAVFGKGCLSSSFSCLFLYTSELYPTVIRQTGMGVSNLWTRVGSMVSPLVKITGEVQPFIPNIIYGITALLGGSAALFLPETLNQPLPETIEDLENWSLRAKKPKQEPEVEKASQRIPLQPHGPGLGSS
Protocol: Cells were cultured in DMEM supplemented with 10% FBS, 100 units/mL penicillin and 100 units/mL streptomycin. […] Cell culture flasks, 24-well cell culture plates, and transwell polycarbonate inserts (12 mm diameter, 0.4 μm pore size) were purchased from Corning Co-star Corp. (Bedford, MA).
The MDCK-OAT1, S2-OAT3, S2-OCT2 and HEK293-OATP1B1 cell lines were utilized in this study. […] Briefly, S2-OAT3, S2-OCT2 and S2-mock cells were trypsinized and uniformly suspended in the culture medium’s designated volume to provide a density of 2.0 × 10^5 cells/mL. A 1.0-mL aliquot of the cell suspension was added into each well of 24-well insert plates. HEK293-OATP1B1, MDCK-OAT1 and their mock cells were seeded in 24-well plates at a density of 1.5 × 10^5 cells/well. […] Three washes terminated the experiment with ice-cold DPBS buffer after removing the incubation buffer. Cells were lysed with 400 μL of […] sodium hydroxide solution. The cell lysate and 3.0 mL of aquasol-2 scintillation fluid were put into a scintillation flask. […] The final concentration of DMSO in the assay was less than 0.1%. All experiments were performed in triplicate.

[2] = biological target: T2, OATP1B1 (Homo sapiens, UniProt Q9Y6L6); assay: Inhibition of OATP1B1-mediated 3H-ES uptake in HEK293-OATP1B1 cells; format: cell-based; details: GA 50–5000 μg/L, PCA 10–1000 μg/L
T2 sequence (Q9Y6L6 1-691): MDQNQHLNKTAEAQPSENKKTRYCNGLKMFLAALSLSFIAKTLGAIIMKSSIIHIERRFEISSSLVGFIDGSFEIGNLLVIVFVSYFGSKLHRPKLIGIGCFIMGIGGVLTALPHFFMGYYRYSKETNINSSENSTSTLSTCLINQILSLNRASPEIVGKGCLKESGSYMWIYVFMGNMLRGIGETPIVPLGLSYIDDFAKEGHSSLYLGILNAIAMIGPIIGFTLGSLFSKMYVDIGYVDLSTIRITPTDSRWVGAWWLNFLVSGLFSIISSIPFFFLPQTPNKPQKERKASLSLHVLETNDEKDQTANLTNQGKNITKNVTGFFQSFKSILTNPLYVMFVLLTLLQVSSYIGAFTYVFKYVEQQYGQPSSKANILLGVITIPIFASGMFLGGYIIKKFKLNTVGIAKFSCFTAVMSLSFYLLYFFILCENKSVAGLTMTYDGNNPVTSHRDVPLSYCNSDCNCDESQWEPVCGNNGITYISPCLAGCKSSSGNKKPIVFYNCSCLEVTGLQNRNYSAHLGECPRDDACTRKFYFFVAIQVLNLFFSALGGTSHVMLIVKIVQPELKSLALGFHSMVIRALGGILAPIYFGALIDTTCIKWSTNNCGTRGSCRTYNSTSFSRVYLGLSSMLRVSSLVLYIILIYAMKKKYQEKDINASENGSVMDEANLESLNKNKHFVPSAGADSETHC
Text: The human multidrug resistance protein (MDR)1-transfected Madin–Darby Canine Kidney (MDCK) cells, human breast cancer resistance protein (BCRP)-transfected MDCK cells, human organic anion transporter (OAT)1-transfected MDCK cells, OAT3-transfected second portion of proximal tubule (S2) cells, human organic cation transporter (OCT)2-transfected S2 cells, human organic anion transporting polypeptide (OATP)1B1-transfected human embryonic kidney 293 (HEK293) cells and their MOCK cells were kindly provided by Japan Fuji Biomedical Co., Ltd. (Osaka, Japan). Cells were cultured in DMEM supplemented with 10% FBS, 100 units/mL penicillin and 100 […]. All cells were incubated in a humidified atmosphere of 95% air and 5% CO2 at 37 °C. A solution of 0.25% trypsin-EDTA was used to detach the cells from flasks. Cell culture flasks, 24-well cell culture plates, and transwell polycarbonate inserts (12 mm diameter, 0.4 μm pore size) were purchased from Corning Co-star Corp. (Bedford, MA).
Concentration-dependent inhibitions were conducted to study GA and PCA’s inhibitory effects on uptake transporters OAT1, OAT3, OCT2 and OATP1B1. The MDCK-OAT1, S2-OAT3, S2-OCT2 and HEK293-OATP1B1 cell lines were utilized in this study. […] The radioactive intensity was measured using a Tri-Carb 2910TR scintillator (PerkinElmer, Waltham, MA). […]

With `O=C(O)c1ccc(O)c(O)c1` [PCA, protocatechuic acid] the “inhibitory effect on OAT3” value [1] was “no significant inhibitory effect” and the “inhibitory effect on OATP1B1-mediated uptake of 3H-ES” value [2] was “no statistical differences”.
